This is an account of results in patent US20250084084A1, “Crystalline form of (2R)-2-(5-fluoro-2-methoxypyridin-4-yl)-1-[(2S)-7-methyl-6-(pyrimidin-2-yl)-3,4-dihydro-1H-spiro[1,8-naphthyridine-2,3-pyrrolidin]-1-yl]propan-1-one” (Pfizer Inc., priority 2020, published 2025).

Each structure is given as a SMILES string. Where two headings read alike, the source gives them in different places. Some results are limits rather than exact numbers.

In this test the target is α-melanocyte-stimulating hormone receptor (hMC4R) (Homo sapiens (Human), UniProt P32245). In words: In vitro binding affinity assay using hMC4R (radioligand competition binding, [125I]-(Nle4, D-Phe7)-α-MSH). Particulars: geometric mean. As to the method:
The binding affinity of test compounds at the α-melanocyte-stimulating hormone receptor (hMC4R) was assessed using a radioligand competition binding assay. Recombinant Chinese hamster ovaries (CHO) cells stably expressing hMC4R (PerkinElmer #ES-191-C) were used for competitive binding. hMC4R membranes were grown in Dulbecco's Modified Essential Medium and Ham's F-12 Medium (DMEM/F12), 10% heat inactivated fetal bovine serum (FBS), 0.4 mg/mL Geneticin and 2 mM L-glutamine. Cell membranes were bulked and frozen until the assay was performed.
Compounds were solubilized in 100% dimethyl sulfoxide (DMSO) to a concentration of 30 mM. A 10-point intermediate dilution series using half log dilutions was created in 100% DMSO with a top concentration of 0.03 mM. The serially diluted compounds were spotted as 1 μL/well, in 96-well Costar 3363 plates. The final compound range in the assay was 300 nM to 0.01 nM with a final DMSO concentration of 1%. Control wells, containing 1 μL of 2 mM ([…]) alpha-melanocyte stimulating hormone (α-MSH-Tocris #2584) was added to the non-specific binding wells and 1 μL 100% DMSO for the total binding control wells. […] The exact concentration of radioligand used for each experiment was determined by liquid scintillation counting and adjusted if necessary.
Frozen hMC4R cell membranes were thawed and Dounce homogenized. Homogenates were resuspended in assay buffer to a concentration of 2 μg per well. […] The plates were incubated for 2 hours at room temperature. Assay samples were then rapidly filtered through Unifilter-96 GF/B PEI coated filter plates using a filter plate harvester (PerkinElmer) and rinsed with ice-cold wash buffer [25 mM (4-(2-hydroxyethyl)-1-piperazineethanesulfonic acid (HEPES), 1 mM MgCl2, 2.5 mM CaCl2, and 500 mM NaCl]. Filter plates were dried overnight at room temperature. Plates were then bottom-sealed prior to the addition of 50 μL/well Ultima Gold XR scintillation fluid (PerkinElmer 6013111). Plates were then top-sealed, incubated for 60 minutes at room temperature and then the amount of radioactivity present was determined by liquid scintillation counting on a Microbeta Trilux (PerkinElmer #2450-0060).
The raw data (expressed as counts per minute) were analyzed using ActivityBase (IDBS Data Management Software). […] Equilibrium dissociation constant for inhibitor of ligand and receptor interaction (Ki) values were then calculated from the IC50 values using the Cheng-Prusoff equation: Ki=IC50/(1+([L]/Kd)), where [L] is the concentration of the radioligand used in the experiment and Kd is the affinity of the radioligand (determined in separate saturation experiments).
A general note: In a radioligand displacement assay an active substance lowers the binding of a labelled ligand.

The mark [1] stands for this setting: read-out: Ki (nM) geometric mean.

α-melanocyte-stimulating hormone receptor (hMC4R), sequence (P32245 whole entry): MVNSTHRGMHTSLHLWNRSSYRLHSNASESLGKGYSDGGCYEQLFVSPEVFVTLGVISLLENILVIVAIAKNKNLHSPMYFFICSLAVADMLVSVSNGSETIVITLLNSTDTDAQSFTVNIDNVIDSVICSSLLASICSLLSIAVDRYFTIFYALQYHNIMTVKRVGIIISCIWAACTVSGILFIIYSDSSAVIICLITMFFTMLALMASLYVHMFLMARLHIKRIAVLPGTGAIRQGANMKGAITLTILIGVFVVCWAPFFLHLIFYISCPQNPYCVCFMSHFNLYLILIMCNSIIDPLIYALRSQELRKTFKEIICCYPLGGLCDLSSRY

As usually defined, the Ki is a measure of affinity in units of concentration, obtained from inhibition or displacement. As to `COc1cc([C@@H](C)C(=O)N2CCC3(CCc4cc(-c5coc(C)n5)c(C)nc4N3)C2)c(F)cn1` (mixture of isomers) [Example 33, (2R)-2-(5-fluoro-2-methoxypyridin-4-yl)-1-[7-methyl-6-(2-methyl-1,3-oxazol-4-yl)-3,4-dihydro-1H-spiro[1,8-naphthyridine-2,3′-pyrrolidin]-1′-yl]propan-1-one], the Ki under setting [1] worked out at 2.6 nM.

Regarding `COc1cc([C@@H](C)C(=O)N2CC[C@@]3(CCc4ccc(C)nc4N3)C2)nc(C)n1` (single isomer, unassigned) [Example 23, 2-(6-methoxy-2-methylpyrimidin-4-yl)-1-(7-methyl-3,4-dihydro-1H-spiro[1,8-naphthyridine-2,3′-pyrrolidin]-1′-yl)propan-1-one], the Ki under setting [1] is 21 nM.

In the case of `COc1cc([C@@H](C)C(=O)N2CC[C@@]3(CCc4cc(-c5ncccn5)c(C)nc4N3)C2)c(C(F)(F)F)cn1` (single isomer, unassigned) [Example 40], under setting [1], the inhibition constant Ki was 150 nM.

On to `COc1ccc([C@@H](C)C(=O)N2CC[C@@]3(CCc4cc(-c5ncccn5)c(C)nc4N3)C2)cc1F` (single isomer, unassigned) [Example 42], for which the Ki under setting [1] amounted to 1.9 nM.

As to `Cc1nc(OC(F)F)cc([C@@H](C)C(=O)N2CC[C@@]3(CCc4cc(-c5ncccn5)c(C)nc4N3)C2)n1` (single isomer, unassigned) [Example 44], under setting [1], the inhibition constant (Ki) is 54 nM.

`COc1cc([C@](C)(F)C(=O)N2CC[C@@]3(CCc4cc(-c5ncccn5)c(C)nc4N3)C2)ccn1` (single isomer, unassigned) [Example 46]: the Ki under setting [1] worked out at 3.5 nM.

As to `Cc1nc2c(cc1-c1ncccn1)CC[C@@]1(CCN(C(=O)[C@H](C)c3ccc(F)c(F)c3)C1)N2` (single isomer, unassigned) [Example 50], under setting [1], the inhibition constant (Ki) was 0.81 nM.

As to `Cc1nc2c(cc1-c1nnn(C)n1)CC[C@@]1(CCN(C(=O)Cc3ccc(C(F)(F)F)cc3)C1)N2` (single isomer, unassigned) [Example 65, 1-[7-methyl-6-(2-methyl-2H-tetrazol-5-yl)-3,4-dihydro-1H-spiro[1,8-naphthyridine-2,3′-pyrrolidin]-1′-yl]-2-[4-(trifluoromethyl)phenyl]ethan-1-one], the Ki under setting [1] was determined as 1.7 nM.

With `Cc1nc2c(cc1-c1nnn(C)n1)CC[C@@]1(CCN(C(=O)Cc3ccc(C(F)(F)F)cc3)C1)N2` (single isomer, unassigned) [Example 66, 1-[7-methyl-6-(2-methyl-2H-tetrazol-5-yl)-3,4-dihydro-1H-spiro[1,8-naphthyridine-2,3′-pyrrolidin]-1′-yl]-2-[4-(trifluoromethyl)phenyl]ethan-1-one], the inhibitory constant (Ki) under setting [1] is 250 nM.

Consider `Cc1nc2c(cc1-c1ncccn1)CC[C@@]1(CCN(C(=O)[C@H](C)c3cc(N(C)C)ncc3F)C1)N2` (single isomer, unassigned) [Example 81], for which the Ki under setting [1] is 6.6 nM.

Consider `COc1cc([C@@H](C)C(=O)N2CC[C@@]3(CCc4cc(-c5ncccn5)c(C)nc4N3)C2)cc(OC)n1` (single isomer, unassigned) [Example 83], for which, under setting [1], the Ki was 0.67 nM.

On to `Cc1ccc2c(n1)N[C@@]1(CC2)CCN(C(=O)Cc2ccc(F)cc2)C1` (single isomer, unassigned) [Example 87, 2-(4-fluorophenyl)-1-(7-methyl-3,4-dihydro-1H-spiro[1,8-naphthyridine-2,3′-pyrrolidin]-1′-yl)ethan-1-one], for which the Ki under setting [1] worked out at 48 nM.

`Cc1ccc2c(n1)N[C@@]1(CC2)CCN(C(=O)Cc2ccc(F)cc2)C1` (single isomer, unassigned) [Example 88, 2-(4-fluorophenyl)-1-(7-methyl-3,4-dihydro-1H-spiro[1,8-naphthyridine-2,3′-pyrrolidin]-1′-yl)ethan-1-one]: the Ki under setting [1] is more than 2200 nM.

Consider `COc1cc(OC)cc([C@@H](C)C(=O)N2CCC3(CCc4cc(-c5cnn(C)c5)c(C)nc4N3)C2)c1` (single isomer, unassigned) [Example 90], for which, under setting [1], the inhibition constant (Ki) came to 0.044 nM.

As to `COc1cc([C@@H](C)C(=O)N2CC[C@@]3(CCc4cc(-c5nc(C(F)(F)F)n(C)n5)c(C)nc4N3)C2)c(F)cn1` (single isomer, unassigned) [Example 92], the Ki under setting [1] is 0.45 nM.

On to `COc1cc([C@@H](C)C(=O)N2CC[C@@]3(CCc4cc(-c5nc(C(F)(F)F)n(C)n5)c(C)nc4N3)C2)c(Cl)cn1` (single isomer, unassigned) [Example 94], for which, under setting [1], the Ki came to 1.2 nM.

Turning to `COc1cc([C@@H](C)C(=O)N2CC[C@@]3(CCc4ccc(C)nc4N3)C2)c(F)cn1` (single isomer, unassigned) [Example 98], the inhibitory constant (Ki) under setting [1] turned out to be 2.8 nM.

As for `COc1cc([C@@H](C)C(=O)N2CC[C@@]3(CCc4ccc(C)nc4N3)C2)c(Cl)cn1` (single isomer, unassigned) [Example 100], the Ki under setting [1] came out at 1.1 nM.

Turning to `COc1cc([C@@H](C)C(=O)N2CC[C@@]3(CCc4cc(Cl)c(C)nc4N3)C2)c(F)cn1` (single isomer, unassigned) [Example 102], under “read-out: Ki (nM) geometric”, the Ki was 110 nM.

As to `COc1cc([C@@H](C)C(=O)N2CC[C@@]3(CCc4cc(-c5cnn(C)c5)c(C)nc4N3)C2)c(Cl)cn1` (single isomer, unassigned) [Example 104], the Ki (read-out: Ki (nM) geometric) came to 0.48 nM.

On to `Cc1nc2c(cc1-c1nnn(C)n1)CC[C@@]1(CCN(C(=O)[C@H](C)c3ccc(OC(F)F)nc3)C1)N2` (single isomer, unassigned) [Example 107], for which the Ki (read-out: Ki (nM) geometric) is 57 nM.

With `Cc1nc2c(cc1-c1nnn(C)n1)CC[C@@]1(CCN(C(=O)C(C)c3ccc(C(F)(F)F)cc3)C1)N2` (single isomer, unassigned) [Example 109], for the setting “read-out: Ki (nM) geometric”, the Ki came to 0.73 nM.

As for `COc1cc([C@@H](C)C(=O)N2CC[C@@]3(CCc4cc(-c5nc(OC)n(C)n5)c(C)nc4N3)C2)c(F)cn1` (single isomer, unassigned) [Example 112], the Ki (read-out: Ki (nM) geometric) was 0.78 nM.

In the case of `COc1cc([C@@H](C)C(=O)N2CC[C@@]3(CCc4cc(-c5nc(C(F)F)n(C)n5)c(C)nc4N3)C2)nc(C)n1` (single isomer, unassigned) [Example 123], the inhibitory constant (Ki) (read-out: Ki (nM) geometric) turned out to be 0.22 nM.

`COc1cc([C@@H](C)C(=O)N2CC[C@@]3(CCc4cc(-c5nnn(C)n5)c(C)nc4N3)C2)ccn1` (single isomer, unassigned) [Example 125]: the inhibition constant (Ki) (read-out: Ki (nM) geometric) amounted to 3.4 nM.

Turning to `COc1cc([C@@H](C)C(=O)N2CC[C@@]3(CCc4cc(-c5nnn(C)n5)c(C)nc4N3)C2)nc(C(F)F)n1` (single isomer, unassigned) [Example 127], the inhibitory constant (Ki) (read-out: Ki (nM) geometric) was found to be 0.97 nM.

Regarding `COc1ncc(F)c([C@@H](C)C(=O)N2CC[C@@]3(CCc4cc(-c5nnn(C)n5)c(C)nc4N3)C2)n1` (single isomer, unassigned) [Example 134], where the note is “read-out: Ki (nM) geometric”, the inhibition constant (Ki) stood at 220 nM.

Turning to `COc1cc([C@@H](C)C(=O)N2CC[C@@]3(CCc4cc(-c5ncccn5)c(C)nc4N3)C2)c(C)cn1` (single isomer, unassigned) [Example 136], the inhibitory constant (Ki) (read-out: Ki (nM) geometric) was 1.4 nM.

In the case of `COc1cc(C(C)(F)C(=O)N2CC[C@@]3(CCc4cc(-c5ncccn5)c(C)nc4N3)C2)c(F)cn1` (single isomer, unassigned) [Example 148], the inhibitory constant (Ki) (read-out: Ki (nM) geometric) is 12 nM.

`Cc1nc2c(cc1-c1ncccn1)CC[C@@]1(CCN(C(=O)C(C)c3ccc(F)cc3F)C1)N2` (single isomer, unassigned) [Example 190]: where the note is “read-out: Ki (nM) geometric”, the Ki was determined as 2.3 nM.

In the case of `COc1cc(C(C)C(=O)N2CC[C@@]3(CCc4cc(-c5ncccn5)c(C)nc4N3)C2)cc(OC(F)F)n1` (single isomer, unassigned) [Example 192], the Ki (read-out: Ki (nM) geometric) was 0.27 nM.

As for `Cc1nc2c(cc1-c1ncccn1)CC[C@@]1(CCN(C(=O)C(C)c3ccnc(OC(F)F)c3)C1)N2` (single isomer, unassigned) [Example 194], for the setting “read-out: Ki (nM) geometric”, the Ki was 92 nM.

On to `Cc1nc2c(cc1-c1cnn(C)c1)CC[C@@]1(CCN(C(=O)Cc3ccc(F)cc3)C1)N2` (stereo in doubt) [Example 89, 2-(4-fluorophenyl)-1-[7-methyl-6-(1-methyl-1H-pyrazol-4-yl)-3,4-dihydro-1H-spiro[1,8-naphthyridine-2,3′-pyrrolidin]-1′-yl]ethan-1-one], for which, under setting [1], the inhibitory constant (Ki) stood at 1.7 nM.

As to `COc1cc([C@@H](C)C(=O)N2CC[C@@]3(CCc4cc(-c5nnn(C)n5)c(C)nc4N3)C2)c(F)cn1` [Example 13, (2R)-2-(5-fluoro-2-methoxypyridin-4-yl)-1-[(2S)-7-methyl-6-(2-methyl-2H-tetrazol-5-yl)-3,4-dihydro-1H-spiro[1,8-naphthyridine-2,3′-pyrrolidin]-1′-yl]propan-1-one], the inhibition constant Ki under setting [1] turned out to be 0.6 nM.
